This is an account of results in patent US12605350B2, “Composition for preventing, ameliorating, or treating disease caused by nitration of tyrosine in proteins comprising tyrosine as effective component” (INDUSTRY-ACADEMIC COOPERATION FOUNDATION GYEONGSANG …, priority 2020, dated 2026).

One test has as its system NQO-1. Description: NQO-1 gene expression in kidney (quantitative real-time PCR), renal ischemia and reperfusion. The following applies: L-tyrosine 100 mg/kg oral once a day for 4 days, 24 hours after ischemia and reperfusion, vs prepared solvent. It is filed as in vivo, mouse. Here is the method: C57BL/6 male mouse (23 to 25 g, KOATECH, South Korea) was allowed to have free access to diets and water in sterile breeding room with constant temperature and humidity. The animals were divided into 3 test groups, i.e., 1) Control group (Sham), 2) Renal ischemia having treatment with prepared solvent and induced reperfusion group (CMC+IR), and 3) Renal ischemia having treatment with L-tyrosine and induced reperfusion group (L-Tyr+IR).
L-Tyrosine (100 mg/kg) was suspended in 0.5% CMC (carboxymethyl cellulose). The animal was orally administered, once a day for 4 days, with L-tyrosine or the prepared solvent CMC. Thirty minutes after the oral administration on Day 4, renal ischemia was caused. Specifically, the animal abdomen was cut and renal pedicles at both sides were clamped using a Muller atraumatic vascular clamp to cause renal ischemia. After 25 minutes of blood ischemia, the clamp was removed followed by reperfusion. The control group (Sham) received the same operational procedures as above except the ischemia using clamp. […]
According to Trizol method, total RNA was extracted from kidney tissues, and cDNA was synthesized by using Revert Aid Reverse Transcription System (ThermoFisher). Quantitative PCR was carried out with CFX Connect Real-Time PCR system (Bio-Rad) by using iQ SYBR Green Super mix (Bio-Rad). […]
For orientation: In qPCR the cycle at which signal appears reflects the starting amount.

For test [1], the system named is high-fat diet mouse model of type 2 diabetes. Description: ROS/RNS amount in plasma, high-fat diet model. The class given is in vivo. Conditions: HFD+L-Tyr vs HFD. The protocol: Twenty-seven C57BL/6 male mice (3-week old) were acclimated to the breeding condition for 1 week. […] Blood glucose was measured every week.
Mouse was anesthetized with avertin, and blood was collected from a heart. After the reaction with EDTA in a vacucontainer, the blood was centrifuged for 15 minutes at 1,500×g, 4° C. to separate plasma. According to heart perfusion with PBS and 4% paraformaldehyde (PFA), tissue fixation was carried out. Then, each tissue was harvested and stored in PFA.
After 3-fold dilution of the plasma in PBS, concentration of reactive oxygen/reactive nitrogen (ROS/RNS) in plasma was measured using Oxiselect ROS/RNS assay kit (Cell Biolabs) according to the recommended experimental protocol.

The next test addresses T1, human recombinant MnSOD (Homo sapiens, UniProt P04179).
T1 sequence (P04179 25-222): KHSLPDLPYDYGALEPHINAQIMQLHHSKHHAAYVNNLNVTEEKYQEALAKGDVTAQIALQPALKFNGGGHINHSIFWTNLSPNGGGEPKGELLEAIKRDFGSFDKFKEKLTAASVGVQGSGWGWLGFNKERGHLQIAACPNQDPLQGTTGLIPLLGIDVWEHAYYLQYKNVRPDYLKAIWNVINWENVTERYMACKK
Description: SOD activity of human recombinant MnSOD treated with peroxynitrite. It is filed as biochemical. The following applies: human recombinant MnSOD with peroxynitrite (2.1 mM PN), 10 minutes on ice. The protocol: Peroxynitrite was diluted by 40 times with 0.3 M NaOH, and absorbance at 302 nm was measured. Then, it was quantified by using the molar absorption coefficient of peroxynitrite) (ε302=1670 M^−1 cm^−1).
For the measurement of SOD activity, SOD colorimetric activity kit by ThermoFisher was used. Human recombinant MnSOD within reference SOD range, peptide, and peroxynitrite were admixed with one another, and the reaction was allowed to occur on ice for 10 minutes. To a 96-well plate, 10 μl of reference SOD or the reaction mixture, and 50 μl of a substrate solution provided in the kit were added, and the absorbance at 450 nm was measured. After adding 25μl of xanthine oxidase provided in the kit and allowing the reaction to occur for 20 minutes at room temperature, absorbance at 450 nm was measured. By using the data obtained by subtracting the first-measured absorbance from the second-measured absorbance, SOD activity was obtained.

In test [2] the test system is chronic immobilization stress group (STR). Description: ammonia amount in PFC (Ammonia assay kit). The following applies: stress group fed tyrosine-diet. The class given is in vivo, mouse. The protocol: PFC tissues were weighed at a temperature of not more than −20° C. to prevent them from melting. To a 1.5 ml tube, RIPA (proteinase inhibitor cocktail, containing PIC) in an amount of 100 μl per 10 mg of the tissues and suitable number of glass beads were added, and then the tissues were lysed twice for 30 seconds by using a bullet blender. Lysed tissues were spun down, transferred to a fresh 1.5 ml tube, and then subjected to tissue homogenization for 1 min by ultrasonication. After centrifuged for 15 minutes at 12,000 rpm, supernatant was transferred to a fresh 1.5 ml tube and kept at −80° C. until use. […]
To 100 μl of the ammonia assay reagent provided in the Ammonia assay kit, 10 μl of the sample diluted by a factor 2 using PBS buffer solution (i.e., corresponding to 5 μg tissues) were added and incubated for 5 minutes at room temperature. […] After 5 minutes, absorbance was measured at 340 nm by using a microreader (Ainitial).
After adding 10 μl of glutamate dehydrogenase solution and incubation for 5 minutes at room temperature, absorbance was measured at 340 nm by using a microreader (Afinal).
DA340 nm (Afinal-Ainitial) was then calculated, and DA340 nm of the blank control or DA340 nm of buffer solution blank control was excluded by subtraction for the reference and sample, respectively. […]

For the next test, the system named is mouse PFC protein. Description: inhibitory effect on in vitro nitration of mouse PFC protein induced by ONOO−. The class given is biochemical. The following applies: mouse PFC protein treated with ONOO−. The source says: By treating mouse PFC protein with ONOO^−, protein nitration was induced and the inhibitory effect on nitration by tyrosine was examined.

Molecules are shown by their SMILES.

In the case of `N[C@@H](Cc1ccc(O)cc1)C(=O)O` [L-tyrosine], the “expression of NQO-1 gene in kidney” value in the test with NQO-1 is reported as “statistically significant increase in the expression of NQO-1 gene”. Further, in test [1], the “plasma ROS/RNS level” value is given as “statistically significant decrease in plasma ROS/RNS level”. Besides, the “MnSOD (SOD) activity” value at human recombinant MnSOD is listed as “higher MnSOD activity”.
For `N[C@@H](Cc1ccc(O)cc1)C(=O)O` [tyrosine], the “plasma ROS/RNS level” value in test [1] (listed as Tyr) is “statistically significant decrease in tissue weight and ROS/RNS amount in plasma”. In addition, in test [2], the “ammonia amount in PFC” value is listed as “reduced to a similar level to the normal group”. The “inhibitory effect on nitration of proteins” value with mouse PFC protein is listed as “nitration of the proteins is inhibited in tyrosine concentration dependent manner”. At human recombinant MnSOD (listed as Tyr), the “MnSOD (SOD) activity” value is “SOD activity can be maintained”.
